Source: US20150267113A1, “Dimercaptothiadiazoles to Prevent Corrosion of Mild Steel by Acid Gases in Oil and Gas Products” (BAKER HUGHES INCORPORATED, priority 2014, published 2015)

How the values were obtained:
[1] = kettle test of corrosion inhibition, atmospheric CO2, NACE brine/ISOPAR-M; details: 2.5 or 5 ppm added; 150° F. (66° C.), atmospheric CO2, 90% NACE brine and 10% ISOPAR-M; immediately after injection; blank 140 to 190 mpy
Protocol: FIG. 1 is a graph of the corrosion rate of mild steel at 150° F. (66° C.) in kettle tests at atmospheric CO2 with two different concentrations of 2,5-dimercapto-1,3,4-thiadiazole in a brine fluid.
A formulation of 10% 2,5-dimercapto-1,3,4 thiadiazole (DMTDA) in water with KOH added to adjust the pH to 8.1 was made. The corrosion inhibition of this formulation was tested in a kettle test at 150° F. (66° C.), atmospheric CO2 in a 90% NACE (National Association of Corrosion Engineers) brine and 10% ISOPAR™-M mixture.
The blank corrosion rates range from 140 to 190 mpy (mils per year). Immediately with the injection of the corrosion inhibitor, the corrosion rate lowered to below 40 mpy in the test with the addition of 2.5 or 5 ppm of 2,5-dimercapto-1,3,4-thiadiazole.

[2] = cited from earlier work

Sc1nnc(S)s1 [2,5-dimercapto-1,3,4-thiadiazole]
corrosion rate [1]: below 40 mpy
solubility in water [2]: 0.01 wt %
